Results from US6596700B2, “Methods of treating hepatitis delta virus infection with β-L-2'-deoxy-nucleosides” (priority 2000, dated 2003).
pEC50, pIC50: −log10 of the molar value. Like-named read-outs stand apart in the source and are kept apart here.

Key:
HDV [1] = details: cited from earlier work
[2] = system: hepatitis B surface antigen; details: in vivo; cited from earlier work
HDV [3] = details: chronically infected animals; cited from earlier work
HDV [4] = details: patients with chronic delta hepatitis; cited from earlier work
HDV [5] = details: in vivo, cited from earlier work
hepatitis B virus = test: anti-hepatitis B virus activity in transfected Hep G-2 (2.2.15) cells; type: cell-based
hepatitis B = details: for pIC50: single agent, hepatitis B replication in 2.2.15 cells
BFU-E = test: human bone marrow clonogenic assay, BFU-E; type: cell-based
[6] = system: woodchuck hepatitis virus (WHV); test: woodchuck chronic hepatitis model, WHV DNA in serum; type: in vivo, woodchucks (Marmota monax); details: for activity compared with 3TC (lamivudine): 3TC 10 mg/kg/day; for ng WHV-DNA per ml serum: orally once a day at 10 mg/kg; for activity in the in vivo model / level to which viral load is reduced: woodchucks chronically infected with WHV
Protocol: The efficacy of L-dA, L-dT and L-dC against hepadnavirus infection in woodchucks (Marmota monax) chronically infected with woodchuck hepatitis virus (WHV) was determined. This animal model of HBV infection is widely accepted and has proven to be useful for the evaluation of antiviral agents directed against HBV. There were 3 animals per drug group, and 4 animals per control. In group 1, the animals received a vehicle control; group 2 received lamivudine (3TC) (10 mg/kg/day); groups 3-6 received L-dA (0.01, 0.1, 1.0, 10 mg/kg/day, respectively); groups 7-10 received L-dT (0.01, 0.1, 1.0, 10 mg/kg/day, respectively); and groups 11-14 received L-dC (0.01, 0.1, 1.0, 10 mg/kg/day). […] Assessment of the activity and toxicity was based on the reduction of WHV DNA in serum: dot-blot, quantative PCR.

Hep G-2 (2.2.15) cells = test: cytotoxicity in Hep G-2 (2.2.15) cells; details: read-out: Cytotoxicity IC50
CFU-GM [7] = test: human bone marrow clonogenic assay, CFU-GM; details: effect on cell growth
CFU-GM [8] = system: CFU-GM
[9] = extracellular DNA, read-out: HBV virions EC50
[10] = replicative intermediates (intracellular DNA), read-out: HBV Ri EC50
[11] = day 0, limit of detection 1 ng/ml

SMILES: Nc1nc2c(ncn2COCCO)c(=O)[nH]1 [Acyclovir]
- HDV replication (HDV [1]; in vitro): enhances HDV replication in vitro

SMILES: Cc1cn([C@H]2O[C@@H](CO)[C@H](O)[C@H]2F)c(=O)[nH]c1=O [L-FMAU, 2′-fluoro-5-methyl-beta-L-arabinofuranosyluridine]
- level of hepatitis B surface antigen [2]: significantly reduces the level of hepatitis B surface antigen
- inhibition of HDV (HDV [3]): potent inhibitor of HDV

SMILES: Nc1ccn([C@@H]2CS[C@H](CO)O2)c(=O)n1 [Lamuvidine, β-L-2′,3′-dideoxy-3′-thiacytidine]
- disease activity and HDV-RNA levels (HDV [4]): does not improve disease activity or lower HDV-RNA levels

SMILES: NC(=O)c1ncn([C@@H]2O[C@H](CO)[C@@H](O)[C@H]2O)n1 [Ribavirin]
- side-effects (HDV [5]): severe side-effects
- virological or biochemical parameters (HDV [5]): did not significantly affect virological or biochemical parameters

SMILES: Cc1ccc(C(=O)Nc2ccc(S(=O)(=O)O)c3cc(S(=O)(=O)O)cc(S(=O)(=O)O)c23)cc1NC(=O)c1cccc(NC(=O)Nc2cccc(C(=O)Nc3cc(C(=O)Nc4ccc(S(=O)(=O)O)c5cc(S(=O)(=O)O)cc(S(=O)(=O)O)c45)ccc3C)c2)c1 [suramin]
- toxicity (HDV [5]; human): too toxic to be acceptable for long term use in humans
- entry of the virion into hepatocytes (HDV [1]): blocks the entry of the virion into hepatocytes

SMILES: Nc1ncnc2c1ncn2[C@@H]1C[C@@H](O)[C@H](CO)O1 [β-L-dA, 2′-Deoxy-β-L-adenosine]
- pEC50 (hepatitis B virus; [9]): 7.00
- pEC50 (hepatitis B virus; [10]): 7.00
- % Inhibition (hepatitis B; single agent 0.005 μM): 1%
- % Inhibition (hepatitis B; single agent 0.05 μM): 24%
- % Inhibition (hepatitis B; single agent 0.5 μM): 90%
- pIC50 (hepatitis B): 7.05
- BFU-E (BFU-E; effect on cell growth, human bone marrow clonogenic assay): >10 µM
- activity compared with 3TC (lamivudine) [6]: more active than 3TC
- ng WHV-DNA per ml serum [6, 11]: 436 ng/mL
- ng WHV-DNA per ml serum ([6]; day 1): 369 ng/mL
- ng WHV-DNA per ml serum ([6]; day 3): 140 ng/mL
- ng WHV-DNA per ml serum ([6]; day 7): 102 ng/mL
- ng WHV-DNA per ml serum ([6]; day 14): 74 ng/mL
- activity in the in vivo model [6]: highly active
- level to which viral load is reduced [6]: nearly undetectable
- pIC50 (Hep G-2 (2.2.15) cells): < 3.70
- CFU-GM (CFU-GM [7]): >10 µM

SMILES: Nc1ccn([C@@H]2C[C@@H](O)[C@H](CO)O2)c(=O)n1 [β-L-dC, 2′-Deoxy-β-L-cytidine]
- pEC50 (hepatitis B virus; [9]): 7.30
- pEC50 (hepatitis B virus; [10]): 7.30
- % Inhibition (hepatitis B; single agent 0.005 μM): 10%
- % Inhibition (hepatitis B; single agent 0.05 μM): 40%
- % Inhibition (hepatitis B; single agent 0.5 μM): 95%
- pIC50 (hepatitis B): 7.22
- BFU-E (BFU-E): >10 µM
- activity compared with 3TC (lamivudine) [6]: more active than 3TC
- ng WHV-DNA per ml serum [6, 11]: 426 ng/mL
- ng WHV-DNA per ml serum ([6]; day 1): 123 ng/mL
- ng WHV-DNA per ml serum ([6]; day 3): 62 ng/mL
- ng WHV-DNA per ml serum ([6]; day 7): 46 ng/mL
- ng WHV-DNA per ml serum ([6]; day 14): 20 ng/mL
- activity in the in vivo model [6]: highly active
- level to which viral load is reduced [6]: nearly undetectable
- pIC50 (Hep G-2 (2.2.15) cells): < 3.70
- CFU-GM (CFU-GM [7]): >10 µM

SMILES: O=c1[nH]cnc2c1ncn2[C@@H]1C[C@@H](O)[C@H](CO)O1 [β-L-dI, 2′-deoxy-β-L-inosine]
- pEC50 (hepatitis B virus; [9]): 6.00
- pEC50 (hepatitis B virus; [10]): 6.00
- pIC50 (Hep G-2 (2.2.15) cells): < 3.70

SMILES: Cc1cn([C@@H]2C[C@@H](O)[C@H](CO)O2)c(=O)[nH]c1=O [β-L-dT, 2′-Deoxy-β-L-thymidine]
- CFU-GM (CFU-GM [8]): >10 µM
- pEC50 (hepatitis B virus; [9]): 7.30
- pEC50 (hepatitis B virus; [10]): 7.30
- BFU-E (BFU-E): >10 µM
- activity compared with 3TC (lamivudine) [6]: more active than 3TC
- ng WHV-DNA per ml serum [6, 11]: 423 ng/mL
- ng WHV-DNA per ml serum ([6]; day 1): 45 ng/mL
- ng WHV-DNA per ml serum ([6]; day 3): 14 ng/mL
- ng WHV-DNA per ml serum ([6]; day 7): 6 ng/mL
- ng WHV-DNA per ml serum ([6]; day 14): 1 ng/mL
- viral rebound after withdrawal ([6]; post-treatment): viral rebound is not detected for at least two weeks
- activity in the in vivo model [6]: highly active
- level to which viral load is reduced [6]: undetectable
- pIC50 (Hep G-2 (2.2.15) cells): < 3.70

SMILES: O=c1ccn([C@@H]2C[C@@H](O)[C@H](CO)O2)c(=O)[nH]1 [β-L-dU, β-L-2′-deoxyuridine]
- CFU-GM (CFU-GM [8]): >10 µM
- pEC50 (hepatitis B virus; [9]): 5.30
- pEC50 (hepatitis B virus; [10]): 5.30
- BFU-E (BFU-E): >10 µM
- pIC50 (Hep G-2 (2.2.15) cells): < 3.70
